Reference: patent US8829016B2, “Triazole compounds as potential anti-inflammatory agents” (King Saud University, priority 2011, dated 2014)

Legend:
ovine COX-1 = target: T1, ovine COX-1 (Ovis aries, UniProt P05979); test: In vitro COX inhibition assay, colorimetric COX (ovine) inhibitor screening kit, COX-1; type: biochemical; conditions: ovine COX-1, colorimetric kit
T1 construct: purchased Cayman Chemicals, USA
T1 sequence (P05979 25-600): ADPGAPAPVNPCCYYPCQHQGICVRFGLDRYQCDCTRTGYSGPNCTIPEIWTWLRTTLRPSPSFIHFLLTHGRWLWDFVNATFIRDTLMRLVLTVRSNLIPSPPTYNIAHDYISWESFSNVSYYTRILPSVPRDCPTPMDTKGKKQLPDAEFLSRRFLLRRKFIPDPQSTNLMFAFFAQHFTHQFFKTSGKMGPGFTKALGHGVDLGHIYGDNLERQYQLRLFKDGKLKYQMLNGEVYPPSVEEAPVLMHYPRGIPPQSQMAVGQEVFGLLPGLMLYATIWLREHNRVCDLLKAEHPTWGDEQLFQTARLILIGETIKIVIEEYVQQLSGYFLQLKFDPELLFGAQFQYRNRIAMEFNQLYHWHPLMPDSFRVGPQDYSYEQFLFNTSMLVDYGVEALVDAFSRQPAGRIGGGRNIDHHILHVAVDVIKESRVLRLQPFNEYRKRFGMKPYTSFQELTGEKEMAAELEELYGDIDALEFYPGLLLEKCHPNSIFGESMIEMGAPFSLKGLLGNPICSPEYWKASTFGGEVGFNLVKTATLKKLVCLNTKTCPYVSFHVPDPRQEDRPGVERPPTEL
Protocol: (§1) Inhibition of the enzymes was determined with the colorimetric COX (ovine) inhibitor screening assay.
(§2) In Vitro COX Inhibition Assay
(§3) The final compounds were evaluated for their ability to inhibit ovine COX-1 and COX-2 enzymes [50% percent inhibition is expressed in molar concentration […]] […] Inhibition of the enzymes was determined with the colorimetric COX (ovine) inhibitor screening assay kit (Cayman Chemicals, USA) using ELISA reader.

ovine COX-2 = target: T2, ovine COX-2 (Ovis aries, UniProt P79208); test: In vitro COX inhibition assay, colorimetric COX (ovine) inhibitor screening kit, COX-2; type: biochemical; conditions: for IC50: ovine COX-2, colorimetric kit; for Selectivity index (COX-1/COX-2): ratio of IC50 COX-1 / IC50 COX-2
T2 construct: purchased Cayman Chemicals, USA
T2 sequence (P79208 17-603): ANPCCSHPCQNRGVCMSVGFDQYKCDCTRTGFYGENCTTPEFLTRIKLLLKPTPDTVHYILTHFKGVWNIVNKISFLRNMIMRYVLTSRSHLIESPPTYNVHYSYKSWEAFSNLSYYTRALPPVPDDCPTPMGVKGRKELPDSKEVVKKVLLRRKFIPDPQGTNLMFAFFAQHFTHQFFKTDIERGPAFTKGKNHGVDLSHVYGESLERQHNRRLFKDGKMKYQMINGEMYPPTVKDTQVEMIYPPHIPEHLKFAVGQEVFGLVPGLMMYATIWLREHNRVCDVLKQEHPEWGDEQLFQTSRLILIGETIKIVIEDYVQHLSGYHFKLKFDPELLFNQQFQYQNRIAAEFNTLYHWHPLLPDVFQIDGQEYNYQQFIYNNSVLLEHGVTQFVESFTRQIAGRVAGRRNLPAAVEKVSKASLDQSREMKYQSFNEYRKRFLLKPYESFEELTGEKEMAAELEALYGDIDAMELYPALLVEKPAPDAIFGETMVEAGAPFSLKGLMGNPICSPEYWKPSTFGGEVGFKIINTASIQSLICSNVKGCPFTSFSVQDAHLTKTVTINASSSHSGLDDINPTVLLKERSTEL
Protocol: as §1, §2, §3

[1] = test system: carrageenan-induced rat paw edema; test: In vivo carrageenan induced rat paw edema assay; design: species or system rat (male Sprague-Dawley); conditions: compound intravenously in DMSO one hour before carrageenan, vs vehicle control = 0%
Protocol: (§4) Anti-inflammatory activity was determined by the carrageenan-induced rat paw edema method described by Winter et al., Proc. Soc. Exp. Biol. Med. 1962, 111, 544, using male Sprague-Dawley rats weighing 150 to 200 g (6-8 weeks old). The protocol for the animal experiments performed was approved by the Research Ethics Committee and Animal Care and Use Committee, Govt. of Saudi Arabia. Compounds were administered intravenously in dimethyl sulfoxide solution. Paw edema was induced by intradermal injection of 50 μ. of 1% λ-carrageenan (Sigma, USA) into the subplantar region of the right hind paw, after one hour of compound administration. […] The control group received only the vehicle. Increase in paw volume was compared with that in the control group and percent inhibition was calculated taking the values in the control group as 0% inhibition.
In Vivo Carrageenan Induced Rat Paw Edema Assay
as §4, with “(Winter” for “Winter”, “al.” for “al.,”, “544). Male” for “544, using male”, “old) were used in groups of six animals per group for the experiments. The animals were housed in a room with temperature of 22±2° C. under a 12 h light/dark cycle. They were allowed free access to food and water ad libitum.” for “old).”, “μl” for “μ.”, “X-carrageenan” for “λ-carrageenan”

| Structure (SMILES) | IC50 (ovine COX-1) | IC50 (ovine COX-2) | Selectivity index (COX-1/COX-2) (ovine COX-2) | melting point | AI activity % inhibition at 1 hr (carrageenan paw edema) [1] | AI activity % inhibition at 2 hr (carrageenan paw edema) [1] |
| --- | --- | --- | --- | --- | --- | --- |
| C=CCCCSC1NN=C(c2ccncc2)N1c1ccccc1 (stereo not drawn) [Compound 5] | – | – | – | 132 to 133 °C | – | – |
| C#CCSC1NN=C(c2ccncc2)N1c1ccccc1 (stereo not drawn) [Compound 3, 4-Phenyl-3-(prop-2-ynylthio)-5-pyridine-4-yl-2,4-dihydro-3H-1,2,4-triazole] | – | – | – | 151 to 152 °C | – | – |
| C=CCCCSc1nnc(-c2ccncc2)n1-c1ccccc1 [Compound 5] | 4.4 nM | 2.6 nM | 1.69 | – | 9 ± 1.3% | 38 ± 1.8% |
| CCCC(C)SC1NN=C(c2ccncc2)N1c1ccccc1 (stereo not drawn) [Compound 4, 3-[(Pent-2-yl)thio]-4-phenyl-5-pyridine-4-yl-2,4-dihydro-3H-1,2,4-triazole] | – | – | – | 96 to 97 °C | – | – |
| C#CCSc1nnc(-c2ccncc2)n1-c1ccccc1 [Compound 3, 4-Phenyl-3-(prop-2-ynylthio)-5-pyridine-4-yl-2,4-dihydro-3H-1,2,4-triazole] | 7.5 nM | 5.3 nM | 1.42 | – | 10 ± 5.4% | 12 ± 4.9% |
| CCCC(C)Sc1nnc(-c2ccncc2)n1-c1ccccc1 (stereo not drawn) [Compound 4, 3-[(Pent-2-yl)thio]-4-phenyl-5-pyridine-4-yl-2,4-dihydro-3H-1,2,4-triazole] | 3.7 nM | 1.4 nM | 2.64 | – | 36 ± 2.1% | 50 ± 2.5% |
| Cc1ccc(-c2cc(C(F)(F)F)nn2-c2ccc(S(N)(=O)=O)cc2)cc1 [Celecoxib, reference compound] | – | – | – | – | 50 ± 2.1% | 71.5 ± 3.7% |

More lines, main results first:

| IC50 (ovine COX-1) | IC50 (ovine COX-2) | Selectivity index (COX-1/COX-2) (ovine COX-2) | melting point | Structure (SMILES) | AI activity % inhibition at 1 hr (carrageenan paw edema) [1] | AI activity % inhibition at 2 hr (carrageenan paw edema) [1] |
| --- | --- | --- | --- | --- | --- | --- |
| 8.7 nM | 6.8 nM | 1.38 | – | S=c1n(CNCc2ccc(Cl)cc2)nc(-c2ccncc2)n1-c1ccccc1 [Compound 13, 2-[(4-Chlorobenzylamino)methyl]-4-phenyl-5-pyridine-4-yl-2,4-dihydro-3H-1,2,4-triazole-3-thione] | 16 ± 5.7% | 19 ± 6.3% |
| 3.1 nM | 0.9 nM | 3.44 | 173 to 174 °C | CN(C)Cn1nc(-c2ccncc2)n(-c2ccccc2)c1=S [Compound 8, 2-Dimethylaminomethyl-4-phenyl-5-pyridine-4-yl-2,4-dihydro-3H-1,2,4-triazole-3-thione] | 51 ± 1.5% | 76 ± 2.8% |
| 3.5 nM | 0.8 nM | 4.38 | 277 to 278 °C | OCn1nc(-c2ccncc2)n(-c2ccccc2)c1=S [Compound 7, 2-Hydroxymethyl-4-phenyl-5-pyridine-4-yl-2,4-dihydro-3H-1,2,4-triazole-3-thione] | 25 ± 1.8% | 66 ± 2.6% |
| 9.2 nM | 7.8 nM | 1.18 | 231 to 232 °C | CCOC(=O)n1nc(-c2ccncc2)n(-c2ccccc2)c1=S [Compound 6, Ethyl[4-phenyl-5-pyridine-4-yl-3-thioxo-2,4-dihydro-3H-1,2,4-triazole-2-yl]carboxylate] | 0.0% | 5 ± 1.8% |
| 4.5 nM | 2.1 nM | 2.14 | 173 to 174 °C | CN(CCO)Cn1nc(-c2ccncc2)n(-c2ccccc2)c1=S [Compound 11, N-Methyl-N-[(4-phenyl-5-pyridine-4-yl-3-thioxo-2,4-dihydro-3H-1,2,4-triazol-2-y)methyl]-2-aminoethanol] | Zero | 16 ± 5.9% |
| 3.8 nM | 1.1 nM | 3.46 | 216 to 217 °C | CCN(CC)Cn1nc(-c2ccncc2)n(-c2ccccc2)c1=S [Compound 9, 2-Diethylaminomethyl-4-phenyl-5-pyridine-4-yl-2,4-dihydro-3H-1,2,4-triazole-3-thione] | 45 ± 1.1% | 66 ± 1.2% |
| 3.7 nM | 0.9 nM | 4.11 | – | S=c1n(CN2CCCC2)nc(-c2ccncc2)n1-c1ccccc1 [Compound 10, 4-Phenyl-5-pyridine-4-yl-2-pyrrolidinylmethyl-2,4-dihydro-3H-1,2,4-triazole-3-thione] | 62 ± 3.4% | 66 ± 1.5% |
| 6.4 nM | 3.9 nM | 1.64 | 208 to 209 °C | S=c1n(CNc2ccc(Br)cc2)nc(-c2ccncc2)n1-c1ccccc1 [Compound 12, 2-[(4-Bromophenylamino)methyl]-4-phenyl-5-pyridine-4-yl-2,4-dihydro-3H-1,2,4-triazole-3-thione] | 12.5 ± 1.6% | 29 ± 3.8% |
